Data on 7 molecules can be found in US9481677B2, “Biaryl ether sulfonamides and their use as therapeutic agents” (XENON PHARMACEUTICALS INC., priority 2011, dated 2016).

The IC50 is the concentration that gives 50% inhibition.

Where only a bound is given, the exact number is not on record here.

Nav1.7, sequence (Q15858 other isoform, or with tags, fused parts or gaps): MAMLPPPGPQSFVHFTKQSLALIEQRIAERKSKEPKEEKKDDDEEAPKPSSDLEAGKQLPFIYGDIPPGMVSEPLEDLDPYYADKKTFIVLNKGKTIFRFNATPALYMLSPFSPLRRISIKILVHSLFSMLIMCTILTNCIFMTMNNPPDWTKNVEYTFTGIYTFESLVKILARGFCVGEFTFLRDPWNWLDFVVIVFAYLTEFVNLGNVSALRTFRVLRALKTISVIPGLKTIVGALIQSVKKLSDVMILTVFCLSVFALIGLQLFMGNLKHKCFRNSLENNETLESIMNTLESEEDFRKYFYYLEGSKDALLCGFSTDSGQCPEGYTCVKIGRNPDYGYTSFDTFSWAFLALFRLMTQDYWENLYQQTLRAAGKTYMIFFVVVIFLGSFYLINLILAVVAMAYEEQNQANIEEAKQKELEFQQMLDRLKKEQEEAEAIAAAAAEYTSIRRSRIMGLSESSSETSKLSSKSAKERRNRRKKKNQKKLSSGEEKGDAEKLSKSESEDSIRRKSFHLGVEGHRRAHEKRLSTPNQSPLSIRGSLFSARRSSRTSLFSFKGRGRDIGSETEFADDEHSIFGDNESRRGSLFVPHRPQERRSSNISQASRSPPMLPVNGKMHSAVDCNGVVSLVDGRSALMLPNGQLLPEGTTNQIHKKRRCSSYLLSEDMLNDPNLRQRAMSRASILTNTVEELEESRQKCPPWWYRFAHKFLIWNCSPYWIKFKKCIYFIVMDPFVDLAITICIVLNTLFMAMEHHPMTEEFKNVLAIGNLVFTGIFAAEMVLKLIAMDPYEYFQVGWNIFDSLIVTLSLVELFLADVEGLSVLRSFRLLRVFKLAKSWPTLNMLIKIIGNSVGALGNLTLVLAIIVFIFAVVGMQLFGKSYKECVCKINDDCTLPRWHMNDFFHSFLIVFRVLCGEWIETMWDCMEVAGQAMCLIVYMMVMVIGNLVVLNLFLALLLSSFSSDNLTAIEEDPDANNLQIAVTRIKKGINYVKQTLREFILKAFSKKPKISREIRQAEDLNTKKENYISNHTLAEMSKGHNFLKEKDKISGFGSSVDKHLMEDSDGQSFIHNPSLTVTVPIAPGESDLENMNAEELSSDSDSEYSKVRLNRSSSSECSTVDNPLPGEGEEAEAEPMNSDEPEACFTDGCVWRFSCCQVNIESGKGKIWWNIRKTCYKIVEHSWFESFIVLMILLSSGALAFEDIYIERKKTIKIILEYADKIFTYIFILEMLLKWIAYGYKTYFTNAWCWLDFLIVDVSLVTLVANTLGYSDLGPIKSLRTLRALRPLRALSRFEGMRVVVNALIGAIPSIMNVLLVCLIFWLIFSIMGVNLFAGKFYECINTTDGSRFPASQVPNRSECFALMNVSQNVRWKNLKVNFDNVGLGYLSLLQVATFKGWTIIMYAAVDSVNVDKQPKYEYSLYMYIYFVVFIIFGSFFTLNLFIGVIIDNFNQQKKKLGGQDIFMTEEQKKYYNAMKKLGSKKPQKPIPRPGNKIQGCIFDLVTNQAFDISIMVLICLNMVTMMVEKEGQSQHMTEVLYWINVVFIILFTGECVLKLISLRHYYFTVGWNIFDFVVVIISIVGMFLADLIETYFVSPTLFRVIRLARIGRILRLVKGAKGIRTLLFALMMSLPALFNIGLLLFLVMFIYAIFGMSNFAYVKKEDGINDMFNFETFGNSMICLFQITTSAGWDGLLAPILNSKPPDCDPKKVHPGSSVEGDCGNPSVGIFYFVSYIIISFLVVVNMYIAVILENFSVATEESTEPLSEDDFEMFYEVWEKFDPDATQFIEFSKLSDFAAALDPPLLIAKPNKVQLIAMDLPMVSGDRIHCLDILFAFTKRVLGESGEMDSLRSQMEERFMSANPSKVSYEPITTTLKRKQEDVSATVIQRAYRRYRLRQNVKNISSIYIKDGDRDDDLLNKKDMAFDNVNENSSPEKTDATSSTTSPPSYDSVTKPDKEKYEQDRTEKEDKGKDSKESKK
Nav1.7, sequence (Q07699 19-218 partner): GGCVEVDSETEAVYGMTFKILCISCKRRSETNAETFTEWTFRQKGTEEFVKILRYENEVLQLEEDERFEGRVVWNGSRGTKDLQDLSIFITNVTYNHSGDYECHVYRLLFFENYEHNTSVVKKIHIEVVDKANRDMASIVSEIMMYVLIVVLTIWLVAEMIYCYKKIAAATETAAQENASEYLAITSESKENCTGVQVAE

The assay has as its target Nav1.7 (Homo sapiens (Human), UniProt Q15858). As to the kind of experiment: Patch voltage clamp electrophysiology, block of inactivated-state Nav1.7 in HEK-293 cells. The following applies: affinity for the inactivated state; HEK-293 cells with β1 subunit; held at -60 mV; read-out: NaV1.7 (IC50 class). It is filed as cell-based. The protocol:
Patch voltage clamp electrophysiology allows for the direct measurement and quantification of block of voltage-gated sodium channels (Nav's), and allows the determination of the time- and voltage-dependence of block which has been interpreted as differential binding to the resting, open, and inactivated states of the sodium channel (Hille, B., Journal of General Physiology (1977), 69: 497-515).
The following patch voltage clamp electrophysiology studies were performed on representative compounds of the invention using human embryonic kidney cells (HEK), permanently transfected with an expression vector containing the full-length cDNA coding for the desired human sodium channel α-subunit, grown in culture media containing 10% FBS, 1% PSG, and 0.5 mg/mL G418 at 37° C. with 5% CO2. […] Nav1.7 and Nav1.5 cDNAs (NM_002977 and AC137587; SCN5A, respectively) were stably expressed in HEK-293 cells. The β1 subunit was coexpressed only in the Nav1.7 cell line.
Sodium currents were measured using the patch clamp technique in the whole-cell configuration using either a PatchXpress automated voltage clamp or manually using an Axopatch 200B (Axon Instruments) or Model 2400 (A-M systems) amplifier. […] The pipette was filled with a solution comprised of: 5 mM NaCl, 10 mM CsCl, 120 mM CsF, 0.1 mM CaCl2, 2 mM MgCl2, 10 mM HEPES, 10 mM EGTA; and adjusted to pH 7.2 with CsOH. The external solution had the following composition: 140 mM NaCl, 5 mM KCl, 2 mM CaCl2, 1 mM MgCl2, 10 mM HEPES; and adjusted to pH 7.4 with NaOH. In some studies, the external sodium was reduced by equimolar replacement with choline. Osmolarity in the CsF internal and NaCl external solutions was adjusted to 300 mOsm/kg and 310 mOsm/kg with glucose, respectively. All recordings were performed at ambient temperature in a bath chamber with a volume of 150 μL. Control sodium currents were measured in 0.5% DMSO. Controls and representative compounds of the invention were applied to the recording chamber through a 4-pinch or 8-pinch valve bath perfusion system manufactured by ALA Scientific Instruments.
Currents were recorded at 40 kHz sampling frequency, filtered at […], and stored using a Digidata-1322A analogue/digital interface with the pClamp software (Axon Instruments). Series resistance compensation was applied (60-80%). […] All statistics in this study are given as mean±SD.
The membrane potential was maintained at a voltage where inactivation of the channel is complete (which was −60 mV for both Nav1.7 and Nav1.5). The voltage is then stepped back to a very negative (Vhold=−150 mV) voltage for 20 ms and then a test pulse is applied to quantify the compound block. […] The percent decrease in sodium current following wash-on of compound was taken as the percent block of sodium channels.
The Example numbers provided in Table 1 and Table 2 correspond to the Examples herein.
In the case of `Nc1cnc2ccc(-c3cc(Cl)ccc3Oc3cc(F)c(S(=O)(=O)Nc4ncns4)cc3F)cn12` [Example 42, 4-(2-(3-aminoimidazo[1,2-a]pyridin-6-yl)-4-chlorophenoxy)-2,5-difluoro-N-(1,2,4-thiadiazol-5-yl)benzenesulfonamide], the IC50 is at most 0.1 µM.

Turning to `O=S(=O)(Nc1ncns1)c1cc(F)c(Oc2ccc(Cl)cc2-c2ccc3ocnc3c2)cc1F` [Example 51, 4-(2-(benzo[d]oxazol-5-yl)-4-chlorophenoxy)-2,5-difluoro-N-(1,2,4-thiadiazol-5-yl)benzenesulfonamide], the IC50 is at most 0.1 µM.

In the case of `Cn1cnc2c(-c3cc(Cl)ccc3Oc3cc(F)c(S(=O)(=O)Nc4ncns4)cc3F)ncnc21` [Example 39, 4-(4-chloro-2-(9-methyl-9H-purin-6-yl)phenoxy)-2,5-difluoro-N-(1,2,4-thiadiazol-5-yl)benzenesulfonamide], the concentration for half-maximal inhibition (IC50) lay within 1 to 10 µM.

Regarding `O=C1Cc2ccc(-c3cc(Cl)ccc3Oc3cc(F)c(S(=O)(=O)Nc4ncns4)cc3F)cc2N1` [Example 55, 4-(4-chloro-2-(2-oxoindolin-6-yl)phenoxy)-2,5-difluoro-N-(1,2,4-thiadiazol-5-yl)benzenesulfonamide], the IC50 was at most 0.1 µM.

On to `O=S(=O)(Nc1ncns1)c1cc(F)c(Oc2ccc(Cl)cc2-c2cnc3n2CCNC3)cc1F` [Example 32, 4-(4-chloro-2-(5,6,7,8-tetrahydroimidazo[1,2-a]pyrazin-3-yl)phenoxy)-2,5-difluoro-N-(1,2,4-thiadiazol-5-yl)benzenesulfonamide], for which the IC50 lay in the range of 0.1 to 1 µM.

As for `CNc1noc2ccc(-c3cc(Cl)ccc3Oc3cc(F)c(S(=O)(=O)Nc4ncns4)cc3F)cc12` [Example 69, 4-(4-chloro-2-(3-(methylamino)benzo[d]isoxazol-5-yl)phenoxy)-2,5-difluoro-N-(1,2,4-thiadiazol-5-yl)benzenesulfonamide], the IC50 was at most 0.1 µM.

For the molecule `Nc1nc2ccc(-c3cc(Cl)ccc3Oc3cc(F)c(S(=O)(=O)Nc4ncns4)cc3F)cc2o1` [Example 57, 4-(2-(2-aminobenzo[d]oxazol-6-yl)-4-chlorophenoxy)-2,5-difluoro-N-(1,2,4-thiadiazol-5-yl)benzenesulfonamide], the IC50 was at most 0.1 µM.
